Measured values taken from publication PMC9356058, “Homocysteine-targeting compounds as a new treatment strategy for diabetic wounds via inhibition of the histone methyltransferase SET7/9” (Experimental & Molecular Medicine, 2022).

Target: T1, SET7/9 (Homo sapiens, UniProt Q8WTS6)
T1 sequence (Q8WTS6 1-366): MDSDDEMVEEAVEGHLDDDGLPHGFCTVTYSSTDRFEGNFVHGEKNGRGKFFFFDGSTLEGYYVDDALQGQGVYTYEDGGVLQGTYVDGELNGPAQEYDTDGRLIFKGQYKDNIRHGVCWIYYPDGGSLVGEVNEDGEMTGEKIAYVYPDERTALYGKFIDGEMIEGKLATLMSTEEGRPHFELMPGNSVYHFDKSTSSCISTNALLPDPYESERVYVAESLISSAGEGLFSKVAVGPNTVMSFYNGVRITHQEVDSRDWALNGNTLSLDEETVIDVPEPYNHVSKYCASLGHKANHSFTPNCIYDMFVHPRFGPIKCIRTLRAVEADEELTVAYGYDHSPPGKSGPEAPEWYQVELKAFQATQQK
Assay: fluorescence polarization, displacement of SAM-binding site probe
Design: gene SETD7; SET7/9 (human recombinant) assay enzyme

## Nc1ncnc2c1ncn2[C@@H]1O[C@H](C[C@@H](N)CC[C@H](N)C(=O)O)[C@@H](O)[C@H]1O [Sine, 5’-deoxy-5’-(1,4-diamino-4-carboxybutyl)adenosine]
  IC50: 6.17 µM
